Results taken from patent US4965280A, “Antifungal carbinols” (E. I. Du Pont de Nemours and Company, priority 1989, dated 1990).

Columns and labels:
LARGE CRABGRASS = assay: Test F; format: in vivo, Digitaria sanguinalis
From the text: (§1) Weed species were planted 3 or 4 per 15-cm diameter pot in Sassafras sandy loam (pH 6.8; 1% OM). Cotton was planted separately in the same sized pot. Postemergence plantings were made 12-16 days prior to treating so plants were in the 2- to 3-leaf stage (5-12 cm tall). Preemergence plantings were made the day before treating. Compounds were sprayed in a suitable non-phytotoxic solvent at 374 l/ha, then after 3 weeks of growth in a greenhouse, plant responses were visually rated on a percent scale where 0=no injury and 100=plant death.

GROUND CHERRY = assay: Test F; format: in vivo, Physalis heterophylla
From the text: as §1

LADY SMARTWEED = assay: Test E; format: in vivo, Polygonum persicaria
From the text: Seeds of the following crops and weeds are sown into 15 cm pots containing Sassafras sandy loam soil: wheat (Triticum aestivum cv. Park), barley (Hordeum vulgare cv. Bonanza), sugarbeet (Beta vulgaris cv. USH-11), rapeseed (Brassica napus cv. Jet Neuf), black nightshade (Solanum nigrum), chickweed (Stellaria media), lambsquarter (Chenopodium album), Galium aparine, knotweed (Polygonum aviculare), Kochia scoparia, Matricaria indora, redroot pigweed (Amaranthus retroflexus), smartweed (Polygonum persicaria), speedwell (Veronica persica), wild buckwheat (Polygonum convolvulus), wild mustard (Brassica spp.), wild radish (Raphanus raphanistrum), annual bluegrass (PO annua), annual ryegrass (Lolium multiflorum), blackgrass (Alopercurus mysuroides), green foxtail (Setaria viridis), and wild oats (Avena fatua). Compounds are formulated in a nonphytotoxic solvent and applied to the plants as a foliar spray or applied to the soil surface. Plants are treated at two stages: preemergence, or postemergence when the sugarbeets are at the 2-3 true leaf stage. Plants are grown in a temperature-controlled greenhouse for the duration of the test.
Weed control and crop injury are evaluated visually at 3-4 weeks after compound application, using a scale of 0 to 100%, where 0=no injury and 100=complete death of the plant. All plants are rated with respect to untreated plants (checks) grown in the greenhouse under identical conditions to the treated plants.

CMN PURSLANE = assay: Test F; format: in vivo, Portulaca oleracea
From the text: as §1

JOHNSONGRASS = assay: Test F; format: in vivo, Sorghum halepense
From the text: as §1

REDROOT PIGWEED = assay: Test F; format: in vivo, Amaranthus retroflexus
From the text: as §1

COCKLEBUR = assay: Test F; format: in vivo, Xanthium pensylvanicum
From the text: as §1

IVY MORNINGGLORY = assay: Test F; format: in vivo, Ipomoea hederacea
From the text: as §1

BRDLF SNGLGRASS = assay: Test F; format: in vivo, Brachiaria platyphylla
From the text: as §1

PURPLE NUTSEDGE = assay: Test F; format: in vivo, Cyperus rotundus
From the text: as §1

FALL PANICUM = assay: Test F; format: in vivo, Panicum dichotomiflorum
From the text: as §1

SICKLEPOD = assay: Test F; format: in vivo, Cassia obtusifolia
From the text: as §1

BERMUDAGRASS = assay: Test F; format: in vivo, Cynodon dactylon
From the text: as §1

COKER COTTON = assay: Test F; format: in vivo, Gossypium hirsutum
From the text: as §1

RICE JAP TOL = assay: Test C rice paddy; format: in vivo, Japonica rice; details: 21 days
Outline: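 In this flooded-paddy assay, rice and weeds grew in saturated silt loam under greenhouse conditions, and the test compound was dosed into the 3 cm standing water shortly after flooding.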

Work on `C=C(c1ccc(F)cc1)C(O)(Cn1cncn1)c1ccc(F)cc1F` (centres unmarked) [Example 4, 2-(2,4-Difluorophenyl)-3-(4-fluorophenyl)-1-(1H-1,2,4-triazol-1-yl)-3-buten-2-ol] yielded a plant response (LARGE CRABGRASS; PREEMERGENCE 0032 GM/HA) of 0%, a plant response (LARGE CRABGRASS; PREEMERGENCE 0064 GM/HA) of 20% and a plant response (LARGE CRABGRASS; PREEMERGENCE 0125 GM/HA) of 100%. The plant response (LARGE CRABGRASS; PREEMERGENCE 0250 GM/HA) was 100%, the plant response (LARGE CRABGRASS; PREEMERGENCE 0500 GM/HA) was 100% and the plant response (GROUND CHERRY; PREEMERGENCE 0032 GM/HA) was 0%. The plant response (GROUND CHERRY; PREEMERGENCE 0064 GM/HA) was 0%, the plant response (GROUND CHERRY; PREEMERGENCE 0125 GM/HA) was 0% and the plant response (GROUND CHERRY; PREEMERGENCE 0250 GM/HA) was 0%. It also gave a plant response (GROUND CHERRY; PREEMERGENCE 0500 GM/HA) of 0%, a plant response (LADY SMARTWEED; PREEMERGENCE 0500 GM/HA) of 100% and a plant response (CMN PURSLANE; PREEMERGENCE 0032 GM/HA) of 0%. It also gave a plant response (CMN PURSLANE; PREEMERGENCE 0064 GM/HA) of 20%, a plant response (CMN PURSLANE; PREEMERGENCE 0125 GM/HA) of 30% and a plant response (CMN PURSLANE; PREEMERGENCE 0250 GM/HA) of 30%. It also gave a plant response (CMN PURSLANE; PREEMERGENCE 0500 GM/HA) of 80%, a plant response (JOHNSONGRASS; PREEMERGENCE 0032 GM/HA) of 0% and a plant response (JOHNSONGRASS; PREEMERGENCE 0064 GM/HA) of 0%. The plant response (JOHNSONGRASS; PREEMERGENCE 0125 GM/HA) was 20%, the plant response (JOHNSONGRASS; PREEMERGENCE 0250 GM/HA) was 50% and the plant response (JOHNSONGRASS; PREEMERGENCE 0500 GM/HA) was 50%. For the same compound, the plant response (REDROOT PIGWEED; PREEMERGENCE 0032 GM/HA) was 50%, the plant response (REDROOT PIGWEED; PREEMERGENCE 0064 GM/HA) was 70% and the plant response (REDROOT PIGWEED; PREEMERGENCE 0125 GM/HA) was 60%. It also gave a plant response (REDROOT PIGWEED; PREEMERGENCE 0250 GM/HA) of 100%, a plant response (REDROOT PIGWEED; PREEMERGENCE 0500 GM/HA) of 100% and a plant response (COCKLEBUR; PREEMERGENCE 0032 GM/HA) of 0%. It also gave a plant response (COCKLEBUR; PREEMERGENCE 0064 GM/HA) of 0%, a plant response (COCKLEBUR; PREEMERGENCE 0125 GM/HA) of 0% and a plant response (COCKLEBUR; PREEMERGENCE 0250 GM/HA) of 0%. For the same compound, the plant response (COCKLEBUR; PREEMERGENCE 0500 GM/HA) was 0%, the plant response (IVY MORNINGGLORY; PREEMERGENCE 0032 GM/HA) was 0% and the plant response (IVY MORNINGGLORY; PREEMERGENCE 0064 GM/HA) was 0%. The plant response (IVY MORNINGGLORY; PREEMERGENCE 0125 GM/HA) was 0%, the plant response (IVY MORNINGGLORY; PREEMERGENCE 0250 GM/HA) was 0% and the plant response (IVY MORNINGGLORY; PREEMERGENCE 0500 GM/HA) was 0%. For the same compound, the plant response (BRDLF SNGLGRASS; PREEMERGENCE 0032 GM/HA) was 0%, the plant response (BRDLF SNGLGRASS; PREEMERGENCE 0064 GM/HA) was 0% and the plant response (BRDLF SNGLGRASS; PREEMERGENCE 0125 GM/HA) was 0%. For the same compound, the plant response (BRDLF SNGLGRASS; PREEMERGENCE 0250 GM/HA) was 0%, the plant response (BRDLF SNGLGRASS; PREEMERGENCE 0500 GM/HA) was 30% and the plant response (PURPLE NUTSEDGE; PREEMERGENCE 0032 GM/HA) was 0%. It also gave a plant response (PURPLE NUTSEDGE; PREEMERGENCE 0064 GM/HA) of 0%, a plant response (PURPLE NUTSEDGE; PREEMERGENCE 0125 GM/HA) of 0% and a plant response (PURPLE NUTSEDGE; PREEMERGENCE 0250 GM/HA) of 0%. The plant response (PURPLE NUTSEDGE; PREEMERGENCE 0500 GM/HA) was 0%, the plant response (FALL PANICUM; PREEMERGENCE 0032 GM/HA) was 90% and the plant response (FALL PANICUM; PREEMERGENCE 0064 GM/HA) was 90%. It also gave a plant response (FALL PANICUM; PREEMERGENCE 0125 GM/HA) of 90%, a plant response (FALL PANICUM; PREEMERGENCE 0250 GM/HA) of 100% and a plant response (FALL PANICUM; PREEMERGENCE 0500 GM/HA) of 100%. For the same compound, the plant response (SICKLEPOD; PREEMERGENCE 0032 GM/HA) was 0%, the plant response (SICKLEPOD; PREEMERGENCE 0064 GM/HA) was 0% and the plant response (SICKLEPOD; PREEMERGENCE 0125 GM/HA) was 0%. For the same compound, the plant response (SICKLEPOD; PREEMERGENCE 0250 GM/HA) was 0%, the plant response (SICKLEPOD; PREEMERGENCE 0500 GM/HA) was 0% and the plant response (BERMUDAGRASS; PREEMERGENCE 0032 GM/HA) was 0%. For the same compound, the plant response (BERMUDAGRASS; PREEMERGENCE 0064 GM/HA) was 20%, the plant response (BERMUDAGRASS; PREEMERGENCE 0125 GM/HA) was 95% and the plant response (BERMUDAGRASS; PREEMERGENCE 0250 GM/HA) was 100%. The plant response (BERMUDAGRASS; PREEMERGENCE 0500 GM/HA) was 100%, the plant response (COKER COTTON; PREEMERGENCE 0032 GM/HA) was 0% and the plant response (COKER COTTON; PREEMERGENCE 0064 GM/HA) was 0%. The plant response (COKER COTTON; PREEMERGENCE 0125 GM/HA) was 0%, the plant response (COKER COTTON; PREEMERGENCE 0250 GM/HA) was 0% and the plant response (COKER COTTON; PREEMERGENCE 0500 GM/HA) was 0%.
`C=C(c1ccccc1Cl)C(O)(Cn1cncn1)c1ccc(F)cc1F` (centres unmarked) [Example 35] gave a plant response (RICE JAP TOL; 0032 G/HA) of 0, a plant response (RICE JAP TOL; 0125 G/HA) of 20 and a plant response (RICE JAP TOL; 0500 G/HA) of 50. The plant response (RICE JAP TOL; 2000 G/HA) was 50.
For `C=C(c1ccc(F)cc1)C(O)(Cn1cncn1)c1ccccc1F` (centres unmarked) [Example 644], the plant response (LADY SMARTWEED; POSTEMERGENCE 0064 GM/HA) was 0%, the plant response (LADY SMARTWEED; POSTEMERGENCE 0125 GM/HA) was 100% and the plant response (LADY SMARTWEED; POSTEMERGENCE 0250 GM/HA) was 100%. It also gave a plant response (LADY SMARTWEED; POSTEMERGENCE 0500 GM/HA) of 100%.
